{"source": "patent US4622312A", "about": "“Growth hormone releasing factor analogs” (Hoffmann-La Roche Inc., priority 1984, dated 1986)", "key": {"[1]": {"test_system": "rat pituitary cells in tissue culture", "experiment": "stimulation of growth hormone production in rat pituitary cells in tissue culture (RIA for rat growth hormone)", "type": "cell-based", "procedure": "Biological activity of the synthetic GRF(1-44)NH2 was identical to the natural GRF(1-44)NH2 which was isolated from a human pancreatic tumor of an individual suffering from acromegaly (Salk Institute standard hGRF--NH2 (NL-A-10)). The assay for biological activity, which is based on the ability to stimulate production of growth hormone in rat pituitary cells in tissue culture, was performed in the following manner.\nPituitaries from 30-40 male Sprague-Dawley rats (175 g) were removed aseptically after decapitation. The anterior lobes were collected, washed 3 times in sterile Hepes buffer (0.025M) (pH 7.35) and dispersed at 37° C. in 20-30 ml Hepes buffer (pH 7.35) containing collagenase (4 mg per ml) and Dispase (Protease grade II, 2 mg per ml). After gentle 100-110-min. vortexing and trituration by Pasteur pipette, the dispersed cells were separated by centrifugation (150×g, 4 min) and re-suspended in Hepes buffer containing neuraminidase (8 μg/ml), and 200 µg/ml ethylenedinitrisotetraacetic acid (EDTA) disodium salt pH 7.35, for 10 min. The cells were washed twice with plating medium and plated on multiwell-plates (1.5×10^5 cells per ml) using the following defined medium: F-12/DMEM/(6:3:1) (Gibco: 430-1700/430-1600/320-2591) with 2 g BSA/l., 2.38 g Hepes/1.50 mg PSN antibiotic mixture (Gibco Laboratories). The medium in each well was supplemented either with a sample of the novel GRF peptide or natural GRF(1-44)--NH2 at concentrations ranging from 0.8 to 200 fmol. per ml. of medium. Control wells contained no supplement. Plating was done with this medium added with 2% fetal calf serum to ensure rapid fixation of the cells. On the fourth day the cells were washed twice with the defined medium without fetal calf serum. Finally 900 μl of defined medium was added to each well plus 100 μl of the same medium containing each individual treatment, in triplicate. After 4 hours of incubation the medium was collected and diluted as required to conduct radioimmunoassay (RIAs) for rat growth hormone. […]"}, "[2]": {"conditions": "Rivier and Vale et al., Nature 300, 276-278 (1982); cited from earlier work"}}, "note": "No end group written: not given here."}
{"compound": "YADAIFTNSYRKVLAQLSARKLLQDIMSR-NH2 [(Ala^15)-GRF(1-29)NH2, [Ala^15]-hGRF(1-29)-NH2]", "values": [{"measurement": "potency relative to GRF(1-29)NH2 (unsubstituted shortened GRF)", "setting": "[1]; growth hormone release, 4 hours of incubation", "value": 4.1, "unit": "times"}, {"measurement": "potency relative to GRF (1-44)NH2", "setting": "[1]; on a weight for weight basis, growth hormone release, 4 hours of incubation", "value": 5.1, "unit": "times"}]}
{"compound": "GRF(1-29)NH2", "values": [{"measurement": "intrinsic activity and potency in vitro", "setting": "[2]", "value": "full intrinsic activity and potency"}]}
{"compound": "CC[C@H](C)[C@H](NC(=O)[C@H](C)NC(=O)[C@H](CC(=O)O)NC(=O)[C@H](C)NC(=O)[C@@H](N)Cc1ccc(O)cc1)C(=O)N[C@@H](Cc1ccccc1)C(=O)N[C@H](C(=O)N[C@@H](CC(N)=O)C(=O)N[C@@H](CO)C(=O)N[C@@H](Cc1ccc(O)cc1)C(=O)N[C@@H](CCCNC(=N)N)C(=O)N[C@@H](CCCCN)C(=O)N[C@H](C(=O)N[C@@H](CC(C)C)C(=O)NCC(=O)N[C@@H](CCC(N)=O)C(=O)N[C@@H](CC(C)C)C(=O)N[C@@H](CO)C(=O)N[C@@H](C)C(=O)N[C@@H](CCCNC(=N)N)C(=O)N[C@@H](CCCCN)C(=O)N[C@@H](CC(C)C)C(=O)N[C@@H](CC(C)C)C(=O)N[C@@H](CCC(N)=O)C(=O)N[C@@H](CC(=O)O)C(=O)N[C@H](C(=O)N[C@@H](CCSC)C(=O)N[C@@H](CO)C(=O)N[C@@H](CCCNC(=N)N)C(=O)N[C@@H](CCC(N)=O)C(=O)N[C@@H](CCC(N)=O)C(=O)NCC(=O)N[C@@H](CCC(=O)O)C(=O)N[C@@H](CO)C(=O)N[C@@H](CC(N)=O)C(=O)N[C@@H](CCC(N)=O)C(=O)N[C@@H](CCC(=O)O)C(=O)N[C@@H](CCCNC(=N)N)C(=O)NCC(=O)N[C@@H](C)C(=O)N[C@@H](CCCNC(=N)N)C(=O)N[C@@H](C)C(=O)N[C@@H](CCCNC(=N)N)C(=O)N[C@@H](CC(C)C)C(N)=O)[C@@H](C)CC)C(C)C)[C@@H](C)O", "note": "[GRF(1-44)NH2]", "values": [{"measurement": "biological activity compared with natural GRF(1-44)NH2 (Salk Institute standard hGRF-NH2 (NL-A-10))", "setting": "[1]; synthetic versus natural peptide isolated from a human pancreatic tumor", "value": "identical"}]}
